Laboratory results reported in patent publication US9447028B2, “Therapeutic aryl-amido-aryl compounds and their use” (King's College London, priority 2009, dated 2016).

Columns and labels:
Type in all cases: cell-based
RARβ = target: T1, RARβ (Homo sapiens, UniProt P10826); experiment: Transactivation assay for RAR beta (gal4-RAR fusion, luciferase reporter, COS-7 cells); settings: ratio of test compound EC50 to that of atRA; inactive = no agonist action at the highest concentration tested
T1 construct: gal4 (fusion partner); expressed in transfected cells; host or cells: COS-7
T1 sequence (P10826 183-417 limits assumed): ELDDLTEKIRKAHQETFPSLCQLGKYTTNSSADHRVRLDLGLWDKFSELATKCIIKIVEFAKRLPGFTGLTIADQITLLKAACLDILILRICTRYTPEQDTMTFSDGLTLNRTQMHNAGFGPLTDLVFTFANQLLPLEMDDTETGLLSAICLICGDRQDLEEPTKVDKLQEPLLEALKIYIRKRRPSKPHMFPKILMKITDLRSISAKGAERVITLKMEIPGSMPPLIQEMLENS
Procedure: (§1) Transcriptional transactivation assays were performed with gal4 fusion receptor constructs, created using each of the RAR ligand binding domains, co-transfected with the pFR-luc (Stratagene™) reporter construct in COS-7 cells.
(§2) Briefly, on day 1, 96 well plates were seeded with 8000 cells per well then left to recover overnight. On day 2, the cells were co-transfected with 100 ng of reporter plasmid and 10 ng of the appropriate receptor plasmid per well using lipofectamine (Invitrogen™). On day 3, the lipofectamine containing media was replaced by a DMEM without phenol red, followed by the addition of test compound dissolved in 1 μL of DMSO to each well's 100 μL total volume. Finally, on day 4, the cells were lysed and their luciferase substrate was provided by the BrightGlo™ reagent (Promega™), the plates were then read on the MicroBeta TriLux™ (Perkin Elmer™).
(§3) Where replicate data has been generated, the data are quoted as a ratio of the mean EC50 from the separate experiments.

RARα = target: T2, RARα (Homo sapiens, UniProt P10276); experiment: Transactivation assay for RAR alpha (gal4-RAR fusion, luciferase reporter, COS-7 cells); settings: for Improvement (RARα activity ratio) / Improvement (RARα/RARβ ratio): compared with XXX-03; for RARα/RARβ ratio (*): fold-selectivity for RARα over RARβ; for RARα activity ratio: ratio of test compound EC50 to that of atRA on the same plate
T2 construct: gal4 (fusion partner); expressed in transfected cells; host or cells: COS-7
T2 sequence (P10276 183-417 limits assumed): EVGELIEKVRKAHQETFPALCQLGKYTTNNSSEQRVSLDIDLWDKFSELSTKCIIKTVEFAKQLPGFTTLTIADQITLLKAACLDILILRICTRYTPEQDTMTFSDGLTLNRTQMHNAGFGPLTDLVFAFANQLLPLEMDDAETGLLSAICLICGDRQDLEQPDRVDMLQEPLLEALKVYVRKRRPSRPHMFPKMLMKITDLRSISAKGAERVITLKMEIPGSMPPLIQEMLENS
Procedure: as §1, §2, §3

RARγ = target: T3, RARγ (Homo sapiens, UniProt P13631); experiment: Transactivation assay for RAR gamma (gal4-RAR fusion, luciferase reporter, COS-7 cells); settings: ratio of test compound EC50 to that of atRA; inactive = no agonist action at the highest concentration tested
T3 construct: gal4 (fusion partner); expressed in transfected cells; host or cells: COS-7
T3 sequence (P13631 185-419 limits assumed): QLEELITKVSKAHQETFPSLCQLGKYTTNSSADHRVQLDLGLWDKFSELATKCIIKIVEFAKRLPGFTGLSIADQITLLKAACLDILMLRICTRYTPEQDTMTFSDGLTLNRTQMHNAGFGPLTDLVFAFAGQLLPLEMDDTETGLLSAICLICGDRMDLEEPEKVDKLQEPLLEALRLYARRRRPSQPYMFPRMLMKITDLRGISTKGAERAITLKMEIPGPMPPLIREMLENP
Procedure: as §1, §2, §3

Compound	RARβ activity ratio (RARβ)	Improvement (RARα activity ratio) (RARα)	Improvement (RARα/RARβ ratio) (RARα)	RARγ activity ratio (RARγ)	RARα/RARβ ratio (*) (RARα)	RARα activity ratio (RARα)
CCOc1c(Cl)cc(C(=O)Nc2ccc(C(=O)O)cc2)cc1Cl [AAA-029, 4-(3,5-Dichloro-4-ethoxy-benzoylamino)-benzoic acid]	1920	~3.8-fold	~11-fold	inactive	–	–
COc1c(Cl)cc(C(=O)Nc2ccc(C(=O)O)cc2)cc1Cl [AAA-030, 4-(3,5-Dichloro-4-methoxy-benzoylamino)-benzoic acid]	9525	~3.1-fold	~46-fold	5850	–	–
CCOc1c(Cl)cc(C(=O)Nc2ccc(C(=O)O)c(C(F)(F)F)c2)cc1Cl [AAA-033, 4-(3,5-Dichloro-4-ethoxybenzamido)-2-(trifluoromethyl)benzoic acid]	19	–	–	148	1.5	13
CC(C)Oc1c(Cl)cc(C(=O)Nc2ccc(C(=O)O)cc2)cc1C(F)(F)F [AAA-034, 4-(3-Chloro-4-isopropoxy-5-(trifluoromethyl)benzamido)benzoic acid]	244	–	–	1250	122	2
COc1c(Cl)cc(C(=O)Nc2ccc(C(=O)O)cc2)cc1C(F)(F)F [AAA-035, 4-(3-Chloro-4-methoxy-5-(trifluoromethyl)benzamido)benzoic acid]	2620	–	–	87000	8700	0.30
O=C(O)c1ccc(NC(=O)c2cc(Cl)c(OC3CCC3)c(C(F)(F)F)c2)cc1 [AAA-036, 4-(3-Chloro-4-cyclobutoxy-5-(trifluoromethyl)benzamido)benzoic acid]	215	–	–	2438	31	7.0
CC(C)(C)Oc1c(Cl)cc(C(=O)Nc2ccc(C(=O)O)cc2)cc1C(F)(F)F [AAA-037, 4-(4-(tert-Butoxy)-3-chloro-5-(trifluoromethyl)benzamido)benzoic acid]	324	–	–	>2600	1300	0.25
Cc1cc(NC(=O)c2cc(Cl)c(OC(C)(C)C)c(C(F)(F)F)c2)ccc1C(=O)O [AAA-038, 4-(4-(tert-Butoxy)-3-chloro-5-(trifluoromethyl)benzamido)-2-methylbenzoic acid]	49	–	–	0.36	98	0.50
CCOc1c(Cl)cc(C(=O)Nc2ccc(C(=O)O)c(C)c2)cc1C(F)(F)F [AAA-039, 4-(3-Chloro-4-ethoxy-5-(trifluoromethyl)benzamido)-2-methylbenzoic acid]	177	–	–	2985	59	3.0
Cc1cc(NC(=O)c2cc(Cl)c(OC(C)C)c(C(F)(F)F)c2)ccc1C(=O)O [AAA-040, 4-(3-Chloro-4-isopropoxy-5-(trifluoromethyl)benzamido)-2-methylbenzoic acid]	60	–	–	194	55	1.1
COc1c(Cl)cc(C(=O)Nc2ccc(C(=O)O)c(C)c2)cc1C(F)(F)F [AAA-041, 4-(3-Chloro-4-methoxy-5-(trifluoromethyl)benzamido)-2-methylbenzoic acid]	238	–	–	31340	44	5.4
CCOc1c(Br)cc(C(=O)Nc2ccc(C(=O)O)cc2)cc1C(F)(F)F [AAA-042, 4-(3-Bromo-4-ethoxy-5-(trifluoromethyl)benzamido)benzoic acid]	369	–	–	6000	68	5.4
O=C(O)c1ccc(NC(=O)c2cc(Cl)c(OC3CCCC3)c(C(F)(F)F)c2)cc1 [AAA-043, 4-(3-Chloro-4-(cyclopentyloxy)-5-(trifluoromethyl)benzamido)benzoic acid]	53	–	–	688	27	2
O=C(O)c1ccc(NC(=O)c2cc(Cl)c(OC3CCCC3)c(OC3CCCC3)c2)cc1 [AAA-044, 4-(3-Chloro-4,5-bis(cyclopentyloxy)benzamido)benzoic acid]	55	–	–	571	32	1.7
O=C(O)c1ccc(NC(=O)c2cc(Cl)c(OCc3ccccc3)c(OCc3ccccc3)c2)cc1 [AAA-045, 4-(3,4-bis(benzyloxy)-5-chlorobenzamido)benzoic acid]	283	–	–	3651	39	7.3
Cc1cc(NC(=O)c2cc(Cl)c(OC3CCCC3)c(OC3CCCC3)c2)ccc1C(=O)O [AAA-046, 4-(3-Chloro-4,5-bis(cyclopentyloxy)benzamido)-2-methylbenzoic acid]	121	–	–	698	43	2.8
O=C(O)c1ccc(NC(=O)c2cc(Cl)c(OC3CCCCC3)c(OC3CCCCC3)c2)cc1 [AAA-047, 4-(3-Chloro-4,5-bis(cyclohexyloxy)benzamido)benzoic acid]	22	–	–	270	2	11
CC(C)(C)Oc1cc(C(=O)Nc2ccc(C(=O)O)cc2)cc(Cl)c1OC(C)(C)C [AAA-048, 4-(3,4-Di-tert-butoxy-5-chlorobenzamido)benzoic acid]	38	–	–	162	44	0.86
Cc1cc(NC(=O)c2cc(Cl)c(OC(C)(C)C)c(OC(C)(C)C)c2)ccc1C(=O)O [AAA-049, 4-(3,4-Di-tert-butoxy-5-chlorobenzamido)-2-methylbenzoic acid]	8460	–	–	82	13200	0.64
Cc1cc(NC(=O)c2cc(Cl)c(OC(C)C)c(OC(C)C)c2)ccc1C(=O)O [AAA-051, 4-(3-Chloro-4,5-diisopropoxybenzamido)-2-methylbenzoic acid]	43	–	–	2859	45	0.97
Cc1cc(NC(=O)c2cc(Br)c(OC(C)C)c(Br)c2)ccc1C(=O)O [AAA-052, 4-(3,5-Dibromo-4-isopropoxybenzamido)-2-methylbenzoic acid]	21	–	–	1923	84	0.25
CCOc1c(Br)cc(C(=O)Nc2ccc(C(=O)O)c(C)c2)cc1Br [AAA-053, 4-(3,5-Dibromo-4-ethoxybenzamido)-2-methylbenzoic acid]	1410	–	–	414	336	4.2
Cc1cc(NC(=O)c2cc(Cl)c(OC3CCCC3)c(Cl)c2)ccc1C(=O)O [AAA-054, 4-(3,5-Dichloro-4-(cyclopentyloxy)benzamido)-2-methylbenzoic acid]	21	–	–	51	36	0.59
COc1c(Cl)cc(C(=O)Nc2ccc(C(=O)O)c(C)c2)cc1Cl [AAA-055, 4-(3,5-Dichloro-4-methoxybenzamido)-2-methylbenzoic acid]	1926	–	–	69000	107	18
Cc1cc(NC(=O)c2cc(Cl)c(OC(C)(C)C)c(Cl)c2)ccc1C(=O)O [AAA-056, 4-(4-tert-Butoxy-3,5-dichlorobenzamido)-2-methylbenzoic acid]	>770	–	–	22	>250	3.1
